According to patent publication US11076594B2, “Pyrazolone compound or salt thereof, preparation method therefor, herbicide composition and use thereof” (QINGDAO KINGAGROOT CHEMICAL COMPOUNDS CO., LTD., priority 2015, dated 2021):

What was measured:
Assay type in all cases: in vivo
Indian mallow = assay: weed control effect in post-emergence stage (Table 1); set-up: key: Level 10: completely dead; Level 9: above 95% growth control rate; Level 8: above 90% growth control rate; Level 7: above 80% growth control rate; Level 6: above 70% growth control rate; Level 5: above 60% growth control rate; Level 4: above 50% growth control rate; Level 3: above 20% growth control rate; Level 2: 5%-20% growth control rate; Level 1: below 5% growth control rate; conditions: post-emergence spray at 4-5 leaf stage, 250 g/ha active ingredient with 450 kg/ha water, rated after 3 weeks in greenhouse
How it was run: (§1)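 Greenhouse pot test; foliar spray at 4-5 leaf stage; acetone + Tween 80 + water formulation; 3 wk post-treatment fresh-weight control rate.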

bidens bipinnata = assay: as above; set-up: key: Level 10: completely dead; Level 9: above 95% growth control rate; Level 8: above 90% growth control rate; Level 7: above 80% growth control rate; Level 6: above 70% growth control rate; Level 5: above 60% growth control rate; Level 4: above 50% growth control rate; Level 3: above 20% growth control rate; Level 2: 5%-20% growth control rate; Level 1: below 5% growth control rate; conditions: post-emergence spray at 4-5 leaf stage, 250 g/ha active ingredient with 450 kg/ha water, rated after 3 weeks in greenhouse
How it was run: as §1

crab grass = assay: as above; set-up: key: Level 10: completely dead; Level 9: above 95% growth control rate; Level 8: above 90% growth control rate; Level 7: above 80% growth control rate; Level 6: above 70% growth control rate; Level 5: above 60% growth control rate; Level 4: above 50% growth control rate; Level 3: above 20% growth control rate; Level 2: 5%-20% growth control rate; Level 1: below 5% growth control rate; conditions: post-emergence spray at 4-5 leaf stage, 250 g/ha active ingredient with 450 kg/ha water, rated after 3 weeks in greenhouse
How it was run: as §1

echinochloa = assay: as above; set-up: key: Level 10: completely dead; Level 9: above 95% growth control rate; Level 8: above 90% growth control rate; Level 7: above 80% growth control rate; Level 6: above 70% growth control rate; Level 5: above 60% growth control rate; Level 4: above 50% growth control rate; Level 3: above 20% growth control rate; Level 2: 5%-20% growth control rate; Level 1: below 5% growth control rate; conditions: post-emergence spray at 4-5 leaf stage, 250 g/ha active ingredient with 450 kg/ha water, rated after 3 weeks in greenhouse
How it was run: as §1

foxtail = assay: as above; set-up: key: Level 10: completely dead; Level 9: above 95% growth control rate; Level 8: above 90% growth control rate; Level 7: above 80% growth control rate; Level 6: above 70% growth control rate; Level 5: above 60% growth control rate; Level 4: above 50% growth control rate; Level 3: above 20% growth control rate; Level 2: 5%-20% growth control rate; Level 1: below 5% growth control rate; conditions: post-emergence spray at 4-5 leaf stage, 250 g/ha active ingredient with 450 kg/ha water, rated after 3 weeks in greenhouse
How it was run: as §1

rorippa indica = assay: as above; set-up: key: Level 10: completely dead; Level 9: above 95% growth control rate; Level 8: above 90% growth control rate; Level 7: above 80% growth control rate; Level 6: above 70% growth control rate; Level 5: above 60% growth control rate; Level 4: above 50% growth control rate; Level 3: above 20% growth control rate; Level 2: 5%-20% growth control rate; Level 1: below 5% growth control rate; conditions: post-emergence spray at 4-5 leaf stage, 250 g/ha active ingredient with 450 kg/ha water, rated after 3 weeks in greenhouse
How it was run: as §1

corn = assay: post-emergence stage experiment, crop (Table 1); conditions: post-emergence spray at 4-5 leaf stage, 250 g/ha active ingredient with 450 kg/ha water, rated after 3 weeks in greenhouse
How it was run: as §1

wheat [1] = assay: post-emergence stage experiment, crop (Table 1); conditions: post-emergence spray at 4-5 leaf stage, 250 g/ha active ingredient with 450 kg/ha water, rated after 3 weeks in greenhouse
How it was run: as §1

rice = assay: post-emergence stage experiment, crop (Table 1); conditions: post-emergence spray at 4-5 leaf stage, 250 g/ha active ingredient with 450 kg/ha water, rated after 3 weeks in greenhouse
How it was run: as §1

wheat [2] = assay: wheat field test, crop selectivity, greenhouse spray at 4 leaf stage; conditions: 4 weeks after treatment
How it was run: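 Potted plants grown in greenhouse were sprayed at the 4 leaf stage, 2–3 weeks post-sowing, with compound in acetone plus methyl oleate emulsion diluted in water. After 4 weeks of further greenhouse culture, growth control was scored as fresh weight control rate.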

rice (japonica rice) = assay: transplanted rice safety evaluation; conditions: 125 g/ha ai; treated 5 days after transplantation; 21 days after treatment
Method: The activity level standard of harmful plant destruction (i.e. growth control rate) is as follows: In addition, the rice field soil that loaded into the 1/1,000,000 ha pot was leveled to keep water storage at 3-4 cm depth. The 3 leaf stage rice (japonica rice) was transplanted at 3 cm of transplanting depth the next day. The compound of the present invention was treated by the same way after 5 days of transplantation. The fertility condition of echinochloa, scirpus juncoides, bidens tripartite and sagittaria trifolia 14 days after the treatment of the compound of the invention and the fertility condition of rice 21 days after the treatment of the compound of the invention respectively with the naked eye.

[3] = 250 g/ha of the active substance
[4] = 2 g/mu, sprayed at 4 leaf stage
[5] = 4 g/mu, sprayed at 4 leaf stage
[6] = 8 g/mu, sprayed at 4 leaf stage
[7] = 16 g/mu, sprayed at 4 leaf stage
[8] = 32 g/mu, sprayed at 4 leaf stage

| SMILES | weed control effect, Indian mallow (level) (Indian mallow) | weed control effect, Bidens bipinnata (level) (bidens bipinnata) | weed control effect, Crab grass (level) (crab grass) | weed control effect, Echinochloa (level) (echinochloa) | weed control effect, Green foxtail (level) (foxtail) | weed control effect, Rorippa indica (level) (rorippa indica) | effect on crop, Corn (level) (corn) | effect on crop, Wheat (level) (wheat [1]) | effect on crop, Rice (level) (rice) | Wheat (activity level, crop damage) (wheat [2]; [3]) | Rice (activity level, transplanted rice safety) (rice (japonica rice)) | Wheat (activity level, crop damage) (wheat [2]; [4]) | Wheat (activity level, crop damage) (wheat [2]; [5]) | Wheat (activity level, crop damage) (wheat [2]; [6]) | Wheat (activity level, crop damage) (wheat [2]; [7]) | Wheat (activity level, crop damage) (wheat [2]; [8]) |
| --- | --- | --- | --- | --- | --- | --- | --- | --- | --- | --- | --- | --- | --- | --- | --- | --- |
| CCn1nc(C)c(C(=O)c2ccc(C(F)(F)F)c(-n3cccn3)c2Cl)c1OC(=O)c1cn(C)nc1C [Compound 129] | 3 (Level 3: above 20% growth control rate) | 9 (Level 9: above 95% growth control rate) | 0 | 10 | 10 | 10 | 3 (Level 3: above 20% growth control rate) | 1 (Level 1: below 5% growth control rate) | 6 (Level 6: above 70% growth control rate) | 1 (Level 1: below 5% growth control rate) | 2 (Level 2: 5%-20% growth control rate) | – | – | – | – | – |
| CCOc1c(C(=O)Oc2c(C(=O)c3ccc(C(F)(F)F)c(N4CCCCC4=O)c3Cl)c(C)nn2C)cnn1C [Compound 037] | 10 | 10 | 6 (Level 6: above 70% growth control rate) | 10 | 10 | 10 | 0 | 0 | 3 (Level 3: above 20% growth control rate) | 0 | 2 (Level 2: 5%-20% growth control rate) | – | – | – | – | – |
| CCOc1c(C(=O)Oc2c(C(=O)c3ccc(C(F)(F)F)c(-n4cccn4)c3Cl)c(C)nn2C)cnn1C [Compound 071] | 10 | 7 (Level 7: above 80% growth control rate) | 4 (Level 4: above 50% growth control rate) | 6 (Level 6: above 70% growth control rate) | 8 (Level 8: above 90% growth control rate) | 10 | 1 (Level 1: below 5% growth control rate) | 0 | 1 (Level 1: below 5% growth control rate) | 0 | 0 | – | – | – | – | – |
| Cc1nn(C)c(O)c1C(=O)c1ccc(C(F)(F)F)c(N2CCCCC2=O)c1Cl [Compound 035] | 9 (Level 9: above 95% growth control rate) | 9 (Level 9: above 95% growth control rate) | 8 (Level 8: above 90% growth control rate) | 7 (Level 7: above 80% growth control rate) | 10 | 9 (Level 9: above 95% growth control rate) | – | 0 | 6 (Level 6: above 70% growth control rate) | – | 0 | 0 | 0 | 0 | 0 | 0 |
| Cc1nn(C)cc1C(=O)Oc1c(C(=O)c2ccc(C(F)(F)F)c(N3CCCC3=O)c2Cl)c(C)nn1C [Compound 023] | 10 | 10 | 10 | 10 | 10 | 10 | 5 (Level 5: above 60% growth control rate) | 4 (Level 4: above 50% growth control rate) | 4 (Level 4: above 50% growth control rate) | – | 0 | 1 (Level 1: below 5% growth control rate) | 2 (Level 2: 5%-20% growth control rate) | 3 (Level 3: above 20% growth control rate) | 4 (Level 4: above 50% growth control rate) | 4 (Level 4: above 50% growth control rate) |
| CCOc1c(C(=O)Oc2c(C(=O)c3ccc(C(F)(F)F)c(-n4cc(C)cn4)c3Cl)cnn2C)cnn1C [Compound 081] | 10 | 10 | 7 (Level 7: above 80% growth control rate) | 10 | 8 (Level 8: above 90% growth control rate) | 10 | 2 (Level 2: 5%-20% growth control rate) | 0 | 3 (Level 3: above 20% growth control rate) | 0 | 1 (Level 1: below 5% growth control rate) | – | – | – | – | – |
| CCOc1c(C(=O)Oc2c(C(=O)c3ccc(C(F)(F)F)c(-n4cc(C)cn4)c3Cl)c(C3CC3)nn2C)cnn1C [Compound 092] | 10 | 8 (Level 8: above 90% growth control rate) | 3 (Level 3: above 20% growth control rate) | 6 (Level 6: above 70% growth control rate) | 8 (Level 8: above 90% growth control rate) | 10 | 2 (Level 2: 5%-20% growth control rate) | 1 (Level 1: below 5% growth control rate) | 2 (Level 2: 5%-20% growth control rate) | 1 (Level 1: below 5% growth control rate) | 0 | – | – | – | – | – |
